From patent US20080161188A1, “HERBICIDAL COMPOSITIONS AND METHODS OF CONTROLLING WEED GROWTH” (priority 2006, published 2008)

System: turf (perennial rye grass, fescue, crabgrass, and several unidentified broad-leaf weeds)
Assay: Field test plots: rate of control of turf by ready to use glyphosate composition with fatty acid additive
Assay type: in vivo
Conditions: versus the same compositions without (water control) short chain fatty acid
Method: This composition included all of the water necessary to apply for weed control and was not further diluted.
The test plots included several species including perennial rye grass, fescue, crabgrass, and several unidentified broad-leaf weeds. As this is a non-selective test, all growing plants (monocot and broadleaf) were evaluated as one species referred to as “turf.” Test plots were 4-ft by 60 ft rectangles with untreated check plots to either side. Evaluations were made at 3 days, 7 days and 14 days by visually inspecting each plot comparing health and vigor of turf (color and mortality) to adjacent untreated controls.

## CC(O)C(=O)O (stereo not shown) [Lactic acid, lactic acid]
  enhancing the rate of weed control in herbicide compositions: particularly effective
